{"source": "patent US7943340B2", "about": "“Fungal dipeptidyl peptidase IV (DPPIV) enzyme for reagent use” (priority 2003, dated 2011)", "key": {"fuLAP2": {"test_system": "fuLAP2", "type": "biochemical, Aspergillus fumigatus", "conditions": "for fuLAP2 hydrolytic activity, percentage of control without inhibitor / fuLAP2 hydrolytic activity, percentage of control without any cation: Leu-MCA substrate", "procedure": "(§1) Inhibitors and metallic cations were pre-incubated with the enzymes for 15 min at 37° C. Then, Leu-AMC at a 5 mM final concentration was added. After further incubation for 60 min, enzyme activity was measured as described above. The inhibitors and their concentrations tested purified LAPs were: 500 μM amastatin (Bachem), 40 μM benzamidine (Sigma), 500 μM bestatin (Bachem), 5 mM/l mM EDTA (Sigma). 100 μM E-64 (L-trans-epoxysuccinyl-leu-4-guanidinobutylamide) (Bachem), 100 μM leupeptin (Sigma), 5 mM/1 mM ortho-phenanthroline (Sigma), 500 μM p-chloromercuribenzoic acid (Sigma), 100 μM pepstatin A (Sigma), 40 μM PMSF (Sigma), 20 μM TLCK (Roche Diagnostics), and 20 μM TPCK (Roche Diagnostics)."}, "ruLAP1": {"molecular_target": "ruLAP1 (Trichophyton rubrum, UniProt Q5QHG5)", "sequence (Q5QHG5 19-373)": "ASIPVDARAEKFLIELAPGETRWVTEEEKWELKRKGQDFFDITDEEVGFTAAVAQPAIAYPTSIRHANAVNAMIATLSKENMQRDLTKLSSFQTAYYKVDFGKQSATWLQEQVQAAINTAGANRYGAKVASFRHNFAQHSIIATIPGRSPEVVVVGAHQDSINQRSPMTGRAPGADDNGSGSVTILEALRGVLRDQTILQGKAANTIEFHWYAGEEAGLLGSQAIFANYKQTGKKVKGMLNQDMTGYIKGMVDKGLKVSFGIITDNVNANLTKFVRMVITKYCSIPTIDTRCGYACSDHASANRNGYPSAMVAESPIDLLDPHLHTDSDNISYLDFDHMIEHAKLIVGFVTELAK", "type": "biochemical", "conditions": "for ruLAP1 hydrolytic activity, percentage of control without inhibitor / ruLAP1 hydrolytic activity, percentage of control without any cation: Leu-MCA substrate; for effect of inhibitor on ruLAP1 activity: Leu-AMC 5 mM, inhibitor concentrations, pepstatin 0.1 mM", "procedure": "as §1"}, "ruLAP2": {"molecular_target": "ruLAP2 (Trichophyton rubrum, UniProt Q5QHG6)", "sequence (Q5QHG6 22-495)": "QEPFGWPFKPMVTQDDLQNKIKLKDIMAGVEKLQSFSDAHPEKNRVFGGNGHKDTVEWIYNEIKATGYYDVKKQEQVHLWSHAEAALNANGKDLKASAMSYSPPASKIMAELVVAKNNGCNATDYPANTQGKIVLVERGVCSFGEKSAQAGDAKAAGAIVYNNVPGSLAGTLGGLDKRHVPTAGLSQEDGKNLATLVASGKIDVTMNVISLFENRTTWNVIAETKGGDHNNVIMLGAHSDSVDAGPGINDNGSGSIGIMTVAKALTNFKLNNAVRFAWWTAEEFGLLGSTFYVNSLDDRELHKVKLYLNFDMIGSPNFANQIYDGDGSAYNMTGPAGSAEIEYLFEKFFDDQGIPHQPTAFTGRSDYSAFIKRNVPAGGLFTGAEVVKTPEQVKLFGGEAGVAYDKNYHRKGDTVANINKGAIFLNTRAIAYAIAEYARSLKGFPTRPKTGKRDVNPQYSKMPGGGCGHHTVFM", "type": "biochemical", "conditions": "for ruLAP2 hydrolytic activity, percentage of control without inhibitor / ruLAP2 hydrolytic activity, percentage of control without any cation: Leu-MCA substrate; for effect of inhibitor on ruLAP2 activity: Leu-AMC 5 mM, inhibitor concentrations", "procedure": "as §1"}, "fuLAP1": {"molecular_target": "fuLAP1 (Aspergillus fumigatus, UniProt Q5VJG6)", "sequence (Q5VJG6 15-388, looked up, natural form)": "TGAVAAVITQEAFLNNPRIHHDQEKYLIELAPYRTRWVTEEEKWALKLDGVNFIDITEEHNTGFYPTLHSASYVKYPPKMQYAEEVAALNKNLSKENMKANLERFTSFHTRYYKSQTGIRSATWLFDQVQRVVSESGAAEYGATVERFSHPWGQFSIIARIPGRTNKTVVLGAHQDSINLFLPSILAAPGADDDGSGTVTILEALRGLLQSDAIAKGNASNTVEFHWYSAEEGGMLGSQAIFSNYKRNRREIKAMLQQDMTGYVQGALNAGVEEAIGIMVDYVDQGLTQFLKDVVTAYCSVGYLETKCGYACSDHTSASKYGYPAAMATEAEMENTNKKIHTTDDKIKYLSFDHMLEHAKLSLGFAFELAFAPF", "type": "biochemical", "conditions": "for fuLAP1 hydrolytic activity, percentage of control without inhibitor / fuLAP1 hydrolytic activity, percentage of control without any cation: Leu-MCA substrate", "procedure": "as §1"}, "[1]": {"molecular_target": "T1, pkLAP (microsomal LAP from porcine kidney) (Sus scrofa, UniProt P15145)", "T1 construct": "purchased Sigma; host or cells: porcine kidney", "T1 sequence (P15145 1-963)": "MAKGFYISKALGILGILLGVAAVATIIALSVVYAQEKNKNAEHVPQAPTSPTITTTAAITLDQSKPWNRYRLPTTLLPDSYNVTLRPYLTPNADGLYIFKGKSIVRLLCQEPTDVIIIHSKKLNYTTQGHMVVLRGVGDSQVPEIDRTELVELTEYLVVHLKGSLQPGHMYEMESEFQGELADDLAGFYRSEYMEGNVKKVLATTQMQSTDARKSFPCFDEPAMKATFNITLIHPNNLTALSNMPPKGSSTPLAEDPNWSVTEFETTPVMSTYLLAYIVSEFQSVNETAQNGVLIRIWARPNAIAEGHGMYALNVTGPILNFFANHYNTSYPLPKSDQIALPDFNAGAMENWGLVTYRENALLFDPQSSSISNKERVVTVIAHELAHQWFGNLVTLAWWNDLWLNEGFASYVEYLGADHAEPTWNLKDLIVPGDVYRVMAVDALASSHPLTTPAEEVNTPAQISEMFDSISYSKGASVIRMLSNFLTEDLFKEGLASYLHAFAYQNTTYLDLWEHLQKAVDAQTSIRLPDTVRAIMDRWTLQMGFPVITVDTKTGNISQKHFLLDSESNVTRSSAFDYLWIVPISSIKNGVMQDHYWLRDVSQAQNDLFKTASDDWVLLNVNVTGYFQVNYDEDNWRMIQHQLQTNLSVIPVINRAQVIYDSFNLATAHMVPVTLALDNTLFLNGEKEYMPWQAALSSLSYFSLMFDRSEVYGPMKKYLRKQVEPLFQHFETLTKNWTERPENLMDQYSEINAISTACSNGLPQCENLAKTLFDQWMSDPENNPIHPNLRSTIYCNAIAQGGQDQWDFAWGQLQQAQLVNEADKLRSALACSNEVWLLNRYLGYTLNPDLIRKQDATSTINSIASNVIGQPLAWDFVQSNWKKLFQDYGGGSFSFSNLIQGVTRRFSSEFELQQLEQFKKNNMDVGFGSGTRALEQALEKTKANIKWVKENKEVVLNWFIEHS", "assay": "Effect of chemical reagents (inhibitors, metallic cations) on LAP activity with Leu-AMC", "type": "biochemical", "conditions": "for pkLAP hydrolytic activity, percentage of control without inhibitor / pkLAP hydrolytic activity, percentage of control without any cation: Leu-MCA substrate", "procedure": "as §1"}, "[2]": {"test_system": "all the LAPs tested (ruLAP1, ruLAP2, fuLAP1, fuLAP2, pkLAP)", "type": "biochemical", "conditions": "Leu-AMC 5 mM; amastatin 500 μM; ortho-phenantroline 1 and 5 mM; others as", "procedure": "as §1"}, "[3]": {"conditions": "Leu-AMC 5 mM, inhibitor concentrations"}}, "note": "Like-named read-outs stand apart in the source and are kept apart here."}
{"molecule": "CC(C)C[C@H](NC(=O)[C@H]1O[C@@H]1C(=O)O)C(=O)NCCCCN=C(N)N", "note": "[E 64]", "values": [{"measurement": "fuLAP2 hydrolytic activity, percentage of control without inhibitor", "setting": "fuLAP2; inhibitor 100 μM", "result": 71, "unit": "%"}, {"measurement": "ruLAP1 hydrolytic activity, percentage of control without inhibitor", "setting": "ruLAP1; inhibitor 100 μM", "result": 103, "unit": "%"}, {"measurement": "ruLAP2 hydrolytic activity, percentage of control without inhibitor", "setting": "ruLAP2; inhibitor 100 μM", "result": 34, "unit": "%"}, {"measurement": "fuLAP1 hydrolytic activity, percentage of control without inhibitor", "setting": "fuLAP1; inhibitor 100 μM", "result": 190, "unit": "%"}, {"measurement": "pkLAP hydrolytic activity, percentage of control without inhibitor", "setting": "[1]; inhibitor 100 μM", "result": 93, "unit": "%"}]}
{"molecule": "N=C(N)c1ccccc1", "note": "[benzamidine]", "values": [{"measurement": "fuLAP2 hydrolytic activity, percentage of control without inhibitor", "setting": "fuLAP2; inhibitor 40 μM", "result": 91, "unit": "%"}, {"measurement": "effect of inhibitor on all the LAPs tested", "setting": "[2]", "result": "no clear inhibitory effects"}]}
{"molecule": "CC(C)C[C@H](NC(=O)[C@@H](O)[C@H](N)Cc1ccccc1)C(=O)O", "note": "[bestatin]", "values": [{"measurement": "effect of inhibitor on fuLAP2 activity", "setting": "fuLAP2; [3]", "result": "only partial inhibitory effect"}, {"measurement": "fuLAP2 hydrolytic activity, percentage of control without inhibitor", "setting": "fuLAP2; inhibitor 500 μM", "result": 88, "unit": "%"}, {"measurement": "effect of inhibitor on ruLAP1 activity", "setting": "ruLAP1", "result": "inhibited"}, {"measurement": "effect of inhibitor on ruLAP2 activity", "setting": "ruLAP2", "result": "only partial inhibitory effect"}, {"measurement": "effect of inhibitor on fuLAP1 activity", "setting": "fuLAP1; Leu-AMC 5 mM, inhibitor concentrations, pepstatin 0.1 mM", "result": "inhibited"}, {"measurement": "effect of inhibitor on pkLAP activity", "setting": "[1]; [3]", "result": "inhibited"}]}
{"molecule": "[Ca+2].[Cl-].[Cl-]", "note": "[CaCl2]", "values": [{"measurement": "fuLAP2 hydrolytic activity, percentage of control without any cation", "setting": "fuLAP2; cation salt 0.5 mM", "result": 110.0, "unit": "%"}, {"measurement": "fuLAP2 hydrolytic activity, percentage of control without any cation", "setting": "fuLAP2; cation salt 1 mM", "result": 165.4, "unit": "%"}, {"measurement": "ruLAP1 hydrolytic activity, percentage of control without any cation", "setting": "ruLAP1; cation salt 0.5 mM", "result": 151.7, "unit": "%"}, {"measurement": "ruLAP1 hydrolytic activity, percentage of control without any cation", "setting": "ruLAP1; cation salt 1 mM", "result": 175.6, "unit": "%"}, {"measurement": "ruLAP2 hydrolytic activity, percentage of control without any cation", "setting": "ruLAP2; cation salt 0.5 mM", "result": 126.6, "unit": "%"}, {"measurement": "ruLAP2 hydrolytic activity, percentage of control without any cation", "setting": "ruLAP2; cation salt 1 mM", "result": 141.9, "unit": "%"}, {"measurement": "fuLAP1 hydrolytic activity, percentage of control without any cation", "setting": "fuLAP1; cation salt 0.5 mM", "result": 54.9, "unit": "%"}, {"measurement": "fuLAP1 hydrolytic activity, percentage of control without any cation", "setting": "fuLAP1; cation salt 1 mM", "result": 43.3, "unit": "%"}, {"measurement": "pkLAP hydrolytic activity, percentage of control without any cation", "setting": "[1]; cation salt 0.5 mM", "result": 177.4, "unit": "%"}, {"measurement": "pkLAP hydrolytic activity, percentage of control without any cation", "setting": "[1]; cation salt 1 mM", "result": 161.8, "unit": "%"}]}
{"molecule": "O=C(O)CN(CCN(CC(=O)O)CC(=O)O)CC(=O)O", "note": "[EDTA]", "values": [{"measurement": "effect of inhibitor on ruLAP1 activity", "setting": "ruLAP1", "result": "more sensitive"}, {"measurement": "effect of inhibitor on ruLAP2 activity", "setting": "ruLAP2", "result": "more sensitive"}]}
{"molecule": "O=C(O)c1cc[c]([Hg][Cl])cc1", "note": "[p-chloromercuribenzoate, p-chloromercuribenzoic acid]", "values": [{"measurement": "fuLAP2 hydrolytic activity, percentage of control without inhibitor", "setting": "fuLAP2; inhibitor 500 μM", "result": 96, "unit": "%"}, {"measurement": "ruLAP1 hydrolytic activity, percentage of control without inhibitor", "setting": "ruLAP1; inhibitor 500 μM", "result": 32, "unit": "%"}, {"measurement": "effect of inhibitor on ruLAP2 activity", "setting": "ruLAP2", "result": "blunted the activity"}, {"measurement": "ruLAP2 hydrolytic activity, percentage of control without inhibitor", "setting": "ruLAP2; inhibitor 500 μM", "result": 21, "unit": "%"}, {"measurement": "fuLAP1 hydrolytic activity, percentage of control without inhibitor", "setting": "fuLAP1; inhibitor 500 μM", "result": 90, "unit": "%"}, {"measurement": "pkLAP hydrolytic activity, percentage of control without inhibitor", "setting": "[1]; inhibitor 500 μM", "result": 59, "unit": "%"}]}
{"molecule": "CC(C)C[C@@H](N)[C@H](O)C(=O)N[C@H](C(=O)N[C@H](C(=O)N[C@@H](CC(=O)O)C(=O)O)C(C)C)C(C)C", "note": "[amastatin]", "values": [{"measurement": "fuLAP2 hydrolytic activity, percentage of control without inhibitor", "setting": "fuLAP2; inhibitor 500 μM", "result": 0, "unit": "%"}, {"measurement": "effect of inhibitor on all the LAPs tested", "setting": "[2]", "result": "strongly or totally inhibited"}]}
{"molecule": "c1cnc2c(c1)ccc1cccnc12", "note": "[orthophenanthroline]", "values": [{"measurement": "fuLAP2 hydrolytic activity, percentage of control without inhibitor", "setting": "fuLAP2; inhibitor 1 mM", "result": 0, "unit": "%"}, {"measurement": "fuLAP2 hydrolytic activity, percentage of control without inhibitor", "setting": "fuLAP2; inhibitor 5 mM", "result": 0, "unit": "%"}, {"measurement": "ruLAP1 hydrolytic activity, percentage of control without inhibitor", "setting": "ruLAP1; inhibitor 1 mM", "result": 0, "unit": "%"}, {"measurement": "ruLAP1 hydrolytic activity, percentage of control without inhibitor", "setting": "ruLAP1; inhibitor 5 mM", "result": 0, "unit": "%"}, {"measurement": "ruLAP2 hydrolytic activity, percentage of control without inhibitor", "setting": "ruLAP2; inhibitor 1 mM", "result": 0, "unit": "%"}, {"measurement": "ruLAP2 hydrolytic activity, percentage of control without inhibitor", "setting": "ruLAP2; inhibitor 5 mM", "result": 0, "unit": "%"}, {"measurement": "fuLAP1 hydrolytic activity, percentage of control without inhibitor", "setting": "fuLAP1; inhibitor 1 mM", "result": 0, "unit": "%"}, {"measurement": "fuLAP1 hydrolytic activity, percentage of control without inhibitor", "setting": "fuLAP1; inhibitor 5 mM", "result": 0, "unit": "%"}, {"measurement": "pkLAP hydrolytic activity, percentage of control without inhibitor", "setting": "[1]; inhibitor 1 mM", "result": 0, "unit": "%"}, {"measurement": "pkLAP hydrolytic activity, percentage of control without inhibitor", "setting": "[1]; inhibitor 5 mM", "result": 0, "unit": "%"}]}
